In PMC10763615, “Identification and engineering of potent cyclic peptides with selective or promiscuous binding through biochemical profiling and bioinformatic data analysis” (RSC Chemical Biology, 2023) one finds Kd data, which are given here for six compounds.

Positions of bridges follow the written chain, without caps; N, C: chain ends. Residues, ends and D or L forms follow the SMILES beside them.

What all share (assay type): binding
In one assay the target is T1, FGF-R1C ECD (Homo sapiens, UniProt P11362).
T1 sequence (P11362 22-376 limits assumed): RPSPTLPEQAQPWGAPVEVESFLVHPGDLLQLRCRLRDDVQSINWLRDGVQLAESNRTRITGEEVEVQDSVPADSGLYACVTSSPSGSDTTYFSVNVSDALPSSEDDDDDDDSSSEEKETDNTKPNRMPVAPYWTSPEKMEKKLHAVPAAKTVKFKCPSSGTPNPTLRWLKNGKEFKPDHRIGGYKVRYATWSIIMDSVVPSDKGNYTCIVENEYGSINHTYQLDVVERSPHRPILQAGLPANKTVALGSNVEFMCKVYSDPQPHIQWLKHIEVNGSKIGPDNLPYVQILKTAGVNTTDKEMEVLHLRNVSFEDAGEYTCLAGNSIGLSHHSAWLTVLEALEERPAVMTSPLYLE
In words: biochemical. Set-up: DNA constructs for the extracellular domain (ECD) of human FGF-; HPC4 (C); made in house; host or cells: HEK 293-6E. Here is the method:
(§1) KD affinity binding measurements were obtained by biolayer interferometry (BLI) instruments (Fortebio Octet HTX, or Sartorius Octet RH16 using either 8 or 16 channel mode.
(§2) For single concentration binding experiments, 50 μM peptide stocks in folding buffer were diluted 1:50 in mRNA display selection buffer (PBS pH7.4 supplemented with 0.05% Tween-20 and 0.01% BSA) in either a 96 well black plate, or a 384 well tilted bottom microplate (ForteBio). Biotinylated FGF-R protein was loaded onto Streptavidin-functionalised biosensors (ForteBio) and immersed into ~1 μM peptide to obtain association kinetics curves. Dissociation kinetics curves were obtained by subsequent immersion of ligand-associated loaded sensors into a 1:50 dilution of folding buffer in mRNA display selection buffer. Fitted KD data was adjusted for concentration as determined by UPLC-CAD.
(§3) For accurate multi-concentration KD determination, dilution series of each peptide were made, and association and dissociation kinetics curves were obtained as above for each concentration to fit a multi-point KD binding model. Data collection and analysis was performed using the Octet Instrument Control […]
(§4) concentration assay kinetics curves shown in supplementary Figure S 19-24.

For another assay, the target named is T2, FGF-R3C ECD (Homo sapiens, UniProt P22607).
T2 sequence (P22607 23-375 limits assumed): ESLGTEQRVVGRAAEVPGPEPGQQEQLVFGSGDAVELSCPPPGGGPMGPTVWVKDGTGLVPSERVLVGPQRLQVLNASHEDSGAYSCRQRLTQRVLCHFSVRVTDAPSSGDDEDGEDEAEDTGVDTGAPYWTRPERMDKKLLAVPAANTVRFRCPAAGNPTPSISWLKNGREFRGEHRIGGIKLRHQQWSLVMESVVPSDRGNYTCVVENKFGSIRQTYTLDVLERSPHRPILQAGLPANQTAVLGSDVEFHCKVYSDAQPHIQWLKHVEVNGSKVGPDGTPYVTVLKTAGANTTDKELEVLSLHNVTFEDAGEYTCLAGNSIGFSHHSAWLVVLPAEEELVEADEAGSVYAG
In words: biochemical. Set-up: DNA constructs for the extracellular domain (ECD) of human FGF-; HPC4 (C); made in house; host or cells: HEK 293-6E. The method, then: as §1, §2, §3, §4

The target of another assay is T3, FGF-R4 ECD (Homo sapiens, UniProt P22455).
T3 construct: DNA constructs for the extracellular domain (ECD) of human FGF-; HPC4 (C); made in house; host or cells: HEK 293-6E
T3 sequence (P22455 22-369 limits assumed): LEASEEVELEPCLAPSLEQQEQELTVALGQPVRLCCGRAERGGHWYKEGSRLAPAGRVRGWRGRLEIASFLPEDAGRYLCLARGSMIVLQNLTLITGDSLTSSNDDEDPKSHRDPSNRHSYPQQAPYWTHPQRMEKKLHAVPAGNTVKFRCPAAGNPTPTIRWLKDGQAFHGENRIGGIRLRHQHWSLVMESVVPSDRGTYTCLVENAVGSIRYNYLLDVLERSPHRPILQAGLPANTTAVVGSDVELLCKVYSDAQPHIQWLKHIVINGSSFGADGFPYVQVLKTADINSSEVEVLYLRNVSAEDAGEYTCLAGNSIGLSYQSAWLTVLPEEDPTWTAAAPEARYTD
In words: single concentration BLI of crude peptides. As to conditions: crude T18 selection 1 (1:1:1) peptides, single concentration BLI (Table S4); read-out: KD (4). The method, then: as §1
as §2, with “UPLC-CAD. […]” for “UPLC-CAD.”

Regarding `CC[C@H](C)[C@@H]1NC(=O)CNC(=O)[C@H]([C@@H](C)O)NC(=O)[C@H](CO)NC(=O)[C@H]([C@@H](C)CC)NC(=O)[C@H](CC(N)=O)NC(=O)[C@H](CCCCN)NC(=O)[C@H](Cc2ccc(O)cc2)NC(=O)[C@@H](NC(=O)[C@H](CCSC)NC(C)=O)CSSC[C@@H](C(=O)NCC(=O)N[C@@H](CO)C(=O)NCC(=O)N[C@@H](CO)C(=O)N[C@@H](CC(=O)O)C(=O)N[C@@H](Cc2ccc(O)cc2)C(=O)N[C@@H](CCCCN)C(=O)N[C@@H](CC(=O)O)C(=O)N[C@@H](CC(=O)O)C(=O)N[C@@H](CC(=O)O)C(=O)N[C@@H](CC(=O)O)C(=O)N[C@@H](CCCCN)C(N)=O)NC(=O)[C@H](Cc2ccc(O)cc2)NC(=O)[C@H](CC(C)C)NC(=O)[C@H](Cc2ccccc2)NC1=O` (Ac-MCYKNISTGIFLYCGSGSDYKDDDDK-NH2; disulfide 2-14), the Kd on FGF-R1C ECD and at FGF-R3C ECD was above 10 µM each time.

In the case of `CC[C@H](C)[C@@H]1NC(=O)[C@H](CCC(=O)O)NC(=O)[C@H](Cc2ccc(O)cc2)NC(=O)[C@@H](NC(=O)[C@H](CCSC)NC(C)=O)CSSC[C@@H](C(=O)NCC(=O)N[C@@H](CO)C(=O)NCC(=O)N[C@@H](CO)C(=O)N[C@@H](CC(=O)O)C(=O)N[C@@H](Cc2ccc(O)cc2)C(=O)N[C@@H](CCCCN)C(=O)N[C@@H](CC(=O)O)C(=O)N[C@@H](CC(=O)O)C(=O)N[C@@H](CC(=O)O)C(=O)N[C@@H](CC(=O)O)C(=O)N[C@@H](CCCCN)C(N)=O)NC(=O)[C@H](C(C)C)NC(=O)[C@H](CCCNC(=N)N)NC(=O)[C@H](CCC(N)=O)NC(=O)[C@H](CC(C)C)NC(=O)[C@H](CCCCN)NC(=O)[C@H](Cc2ccc(O)cc2)NC(=O)[C@H](Cc2c[nH]c3ccccc23)NC(=O)[C@H]([C@@H](C)CC)NC1=O` (Ac-MCYEIIWYKLQRVCGSGSDYKDDDDK-NH2; disulfide 2-14), the Kd at FGF-R1C ECD and on FGF-R3C ECD was above 10 µM each time.

As to `CSCC[C@H](NC(C)=O)C(=O)N[C@H]1CSSC[C@@H](C(=O)NCC(=O)N[C@@H](CO)C(=O)NCC(=O)N[C@@H](CO)C(=O)N[C@@H](CCC(=O)O)C(=O)N[C@@H](CCC(=O)O)C(=O)NCC(=O)N[C@@H](CO)C(=O)NCC(=O)N[C@@H](CO)C(=O)N[C@@H](CC(=O)O)C(=O)N[C@@H](Cc2ccc(O)cc2)C(=O)N[C@@H](CCCCN)C(=O)N[C@@H](CC(=O)O)C(=O)N[C@@H](CC(=O)O)C(=O)N[C@@H](CC(=O)O)C(=O)N[C@@H](CC(=O)O)C(=O)N[C@@H](CCCCN)C(N)=O)NC(=O)[C@H](CCCNC(=N)N)NC(=O)[C@H](CO)NC(=O)[C@H](Cc2c[nH]cn2)NC(=O)[C@H](CCCCN)NC(=O)[C@H](CC(C)C)NC(=O)[C@H](Cc2c[nH]c3ccccc23)NC(=O)[C@H](CC(C)C)NC(=O)[C@H](CCCCN)NC(=O)[C@H](Cc2ccc(O)cc2)NC(=O)[C@H](Cc2ccc(O)cc2)NC(=O)[C@H](C(C)C)NC(=O)[C@H](C)NC1=O` (Ac-MCAVYYKLWLKHSRCGSGSEEGSGSDYKDDDDK-NH2; disulfide 2-15), the Kd at FGF-R4 ECD is 0.007 µM; on FGF-R1C ECD, above 10 µM.

Regarding `CC[C@H](C)[C@@H]1NC(=O)[C@H](Cc2c[nH]cn2)NC(=O)[C@@H](NC(=O)[C@H](CCSC)NC(C)=O)CSSC[C@@H](C(=O)NCC(=O)N[C@@H](CO)C(=O)NCC(=O)N[C@@H](CO)C(=O)N[C@@H](CC(=O)O)C(=O)N[C@@H](Cc2ccc(O)cc2)C(=O)N[C@@H](CCCCN)C(=O)N[C@@H](CC(=O)O)C(=O)N[C@@H](CC(=O)O)C(=O)N[C@@H](CC(=O)O)C(=O)N[C@@H](CC(=O)O)C(=O)N[C@@H](CCCCN)C(N)=O)NC(=O)[C@H](C(C)C)NC(=O)[C@H](Cc2ccc(O)cc2)NC(=O)[C@H](Cc2c[nH]cn2)NC(=O)[C@H](Cc2ccccc2)NC(=O)[C@H](CCC(N)=O)NC(=O)[C@H](CC(N)=O)NC(=O)[C@H](CC(N)=O)NC(=O)[C@H](Cc2ccccc2)NC(=O)[C@H](Cc2ccc(O)cc2)NC(=O)[C@H](Cc2c[nH]c3ccccc23)NC1=O` (Ac-MCHIWYFNNQFHYVCGSGSDYKDDDDK-NH2; disulfide 2-15), the dissociation constant (Kd) was 0.006 µM on FGF-R4 ECD and above 10 µM at FGF-R1C ECD.

With `CC[C@H](C)[C@@H]1NC(=O)[C@H](Cc2c[nH]cn2)NC(=O)[C@H](CCCNC(=N)N)NC(=O)[C@H](CCCCN)NC(=O)[C@@H](NC(=O)[C@H](CCSC)NC(C)=O)CSSC[C@@H](C(=O)NCC(=O)N[C@@H](CO)C(=O)NCC(=O)N[C@@H](CO)C(=O)N[C@@H](CCC(=O)O)C(=O)N[C@@H](CCC(=O)O)C(=O)NCC(=O)N[C@@H](CO)C(=O)NCC(=O)N[C@@H](CO)C(=O)N[C@@H](CC(=O)O)C(=O)N[C@@H](Cc2ccc(O)cc2)C(=O)N[C@@H](CCCCN)C(=O)N[C@@H](CC(=O)O)C(=O)N[C@@H](CC(=O)O)C(=O)N[C@@H](CC(=O)O)C(=O)N[C@@H](CC(=O)O)C(=O)N[C@@H](CCCCN)C(N)=O)NC(=O)[C@H](C(C)C)NC(=O)[C@H](Cc2ccc(O)cc2)NC(=O)[C@H](CC(C)C)NC(=O)[C@H](CCC(N)=O)NC(=O)[C@H](Cc2c[nH]c3ccccc23)NC(=O)[C@H](Cc2ccc(O)cc2)NC(=O)[C@H](CCCNC(=N)N)NC1=O` (Ac-MCKRHIRYWQLYVCGSGSEEGSGSDYKDDDDK-NH2; disulfide 2-14), the results for the dissociation constant (Kd) on FGF-R1C ECD and on FGF-R3C ECD were 0.265 µM and 0.838 µM, respectively.

As to `CC[C@H](C)[C@@H]1NC(=O)[C@H](CCC(=O)O)NC(=O)[C@H](CCCNC(=N)N)NC(=O)[C@@H](NC(=O)[C@H](CCSC)NC(C)=O)CSSC[C@@H](C(=O)NCC(=O)N[C@@H](CO)C(=O)NCC(=O)N[C@@H](CO)C(=O)N[C@@H](CC(=O)O)C(=O)N[C@@H](Cc2ccc(O)cc2)C(=O)N[C@@H](CCCCN)C(=O)N[C@@H](CC(=O)O)C(=O)N[C@@H](CC(=O)O)C(=O)N[C@@H](CC(=O)O)C(=O)N[C@@H](CC(=O)O)C(=O)N[C@@H](CCCCN)C(N)=O)NC(=O)[C@H](Cc2ccccc2)NC(=O)[C@H](C)NC(=O)[C@H](CCCNC(=N)N)NC(=O)[C@H](Cc2ccc(O)cc2)NC(=O)[C@H](CC(C)C)NC(=O)[C@H](CCC(N)=O)NC(=O)[C@H](Cc2c[nH]c3ccccc23)NC(=O)[C@H](Cc2ccc(O)cc2)NC(=O)[C@H](CCCNC(=N)N)NC1=O` (Ac-MCREIRYWQLYRAFCGSGSDYKDDDDK-NH2; disulfide 2-15), the Kd on FGF-R1C ECD and on FGF-R3C ECD was above 10 µM throughout.

The term Kd denotes the free concentration of one partner at which half of the binding sites on the other are occupied at equilibrium, for simple one-to-one binding.
